Assays:
KCNQ2/3 channels = target: T1, KCNQ2/3 channels (Homo sapiens, UniProt O43525+O43526); assay: Fluorescence assay using a voltage sensitive dye (fluorimetry); type: cell-based; details: CHO-K1 cells expressing KCNQ2/3; for Emax: CHO-K1, plateau effect relative to saturated retigabine (50 μM) = 100%, negative values = antagonistic, read-out: Fluorimetry % efficacy (retigabine = 100%); for EC50: IC50 where % efficacy is negative, read-out: Fluorimetry EC50/IC50
T1 construct: expressed in transfected cells
T1 sequence (O43526 whole entry): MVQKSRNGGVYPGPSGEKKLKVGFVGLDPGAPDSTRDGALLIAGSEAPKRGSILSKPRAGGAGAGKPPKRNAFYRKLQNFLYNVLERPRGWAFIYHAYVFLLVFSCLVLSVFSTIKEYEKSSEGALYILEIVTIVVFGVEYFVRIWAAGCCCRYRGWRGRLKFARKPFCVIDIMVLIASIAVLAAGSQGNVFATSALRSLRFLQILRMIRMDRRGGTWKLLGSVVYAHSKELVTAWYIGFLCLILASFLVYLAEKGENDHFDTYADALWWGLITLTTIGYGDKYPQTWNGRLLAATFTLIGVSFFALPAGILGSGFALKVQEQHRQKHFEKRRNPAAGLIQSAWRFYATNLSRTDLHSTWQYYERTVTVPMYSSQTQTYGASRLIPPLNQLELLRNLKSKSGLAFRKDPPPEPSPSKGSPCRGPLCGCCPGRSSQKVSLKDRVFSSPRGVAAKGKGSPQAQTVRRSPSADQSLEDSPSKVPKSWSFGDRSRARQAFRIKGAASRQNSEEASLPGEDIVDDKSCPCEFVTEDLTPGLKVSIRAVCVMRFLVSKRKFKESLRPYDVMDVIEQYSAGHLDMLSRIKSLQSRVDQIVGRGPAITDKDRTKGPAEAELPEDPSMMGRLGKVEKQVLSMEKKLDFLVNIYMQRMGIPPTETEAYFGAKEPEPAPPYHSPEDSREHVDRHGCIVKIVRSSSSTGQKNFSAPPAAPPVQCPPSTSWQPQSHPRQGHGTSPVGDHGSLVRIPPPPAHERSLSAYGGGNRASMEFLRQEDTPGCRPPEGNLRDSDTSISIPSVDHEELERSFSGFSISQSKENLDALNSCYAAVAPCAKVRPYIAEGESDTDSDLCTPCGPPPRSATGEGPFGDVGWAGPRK
T1 sequence (O43525 whole entry): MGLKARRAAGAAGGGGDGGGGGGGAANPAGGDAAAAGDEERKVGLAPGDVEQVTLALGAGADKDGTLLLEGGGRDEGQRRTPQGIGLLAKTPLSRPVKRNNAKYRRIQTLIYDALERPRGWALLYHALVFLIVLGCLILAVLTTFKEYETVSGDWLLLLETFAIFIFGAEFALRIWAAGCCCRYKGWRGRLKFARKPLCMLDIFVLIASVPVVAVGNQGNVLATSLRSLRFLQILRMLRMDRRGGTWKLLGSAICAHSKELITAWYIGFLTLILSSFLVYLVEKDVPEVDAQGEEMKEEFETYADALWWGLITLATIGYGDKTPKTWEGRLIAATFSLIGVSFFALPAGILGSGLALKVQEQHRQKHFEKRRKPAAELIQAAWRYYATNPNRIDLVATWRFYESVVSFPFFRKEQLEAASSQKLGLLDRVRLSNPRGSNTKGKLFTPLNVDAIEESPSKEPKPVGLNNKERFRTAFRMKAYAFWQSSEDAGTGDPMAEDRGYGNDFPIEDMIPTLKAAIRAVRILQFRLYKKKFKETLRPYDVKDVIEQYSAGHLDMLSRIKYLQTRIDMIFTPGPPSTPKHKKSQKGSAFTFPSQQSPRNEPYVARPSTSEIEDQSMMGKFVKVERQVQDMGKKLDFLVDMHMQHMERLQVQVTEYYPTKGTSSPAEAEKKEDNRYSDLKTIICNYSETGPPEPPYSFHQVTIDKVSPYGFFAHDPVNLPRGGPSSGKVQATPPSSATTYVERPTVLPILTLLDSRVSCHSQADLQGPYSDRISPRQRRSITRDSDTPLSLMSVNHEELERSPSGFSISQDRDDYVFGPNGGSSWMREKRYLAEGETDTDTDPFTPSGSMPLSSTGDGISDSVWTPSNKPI

rat = assay: Low-intensity tail flick test (rat); type: in vivo; details: po, peroral; for inhibition in vivo at 10 mg/kg: MPE = % of maximum possible effect
Description: Method II. Low-Intensity Tail Flick Test (Rat)
In the low-intensity tail flick test, the determination of the antinociceptive effect of the compounds according to the invention towards an acute noxious thermal stimulus is carried out by measuring the withdrawal reflex of the rat tail (tail flick) in response to a radiant heat beam (analgesia meter; model 2011 of the company Rhema Labortechnik, Hofheim, Germany) according to the method described by D'Amour and Smith (J. Pharm. Exp. Ther. 72, 74 79 (1941). To this end, the rats were placed in a plexiglass restrainer, and a low-intensity radiant heat beam (48° C.) was focused onto the dorsal surface of the tail root. The stimulus intensity was adjusted to result in a mean pre-drug control withdrawal latency of about 7 s, thus also allowing a supraspinal modulation of the spinally mediated acute nociceptive reflex. A cutoff time of 30 s was applied to avoid tissue damage. Male Sprague-Dawley rats (Janvier, Le Genest St. Isle, Frankreich) with weights of 200-250 g were used. 10 rats were used per group. Before administration of a compound according to the invention, the animals were pre-tested twice in the course of five minutes and the mean of these measurements was calculated as the pre-test mean. The antinociceptive effect was determined at 20, 40 and 60 min after peroral compound administration. The antinociceptive effect was calculated based on the increase in the tail withdrawal latency according to the following formula and is expressed as percentage of the maximum possible effect (MPE [%]): MPE=[(T1−T0)/(T2−T0)]*100
In this, T0 is the control latency time before and T1 the latency time after administration of the compound, T2 is the cutoff time and MPE is the maximum possible effect. Employing variant analysis (repeated measures ANOVA) allowed testing of statistically significant differences between the compounds according to the invention and the vehicle group. The significance level was set to p≦0.05. To determine the dose dependency, the particular compound according to the invention was administered in 3-5 logarithmically increasing doses, including a threshold dose and a maximum effective dose, and the ED50 values were determined with the aid of regression analysis. The ED50 calculation was performed at the time of maximum efficacy (usually 20 min after administration of the compounds).

CCCc1nc(N2CCOCC2)cc(C)c1C(=O)NCc1cccc(F)c1 [Example 10, N-[(3-Fluorophenyl)-methyl]-4-methyl-6-morpholin-4-yl-2-propyl-pyridine-3-carboxylic acid amide]
Emax (KCNQ2/3 channels): 176%
EC50 (KCNQ2/3 channels): 0.181 µM
inhibition in vivo at 10 mg/kg (rat): 81%

CCSc1nc(N2CCOCC2)cc(C)c1C(=O)NCCCC(C)C [Example 79, 2-Ethylsulfanyl-4-methyl-N-(4-methyl-pentyl)-6-morpholin-4-yl-pyridine-3-carboxylic acid amide]
Emax (KCNQ2/3 channels): 215%
EC50 (KCNQ2/3 channels): 0.206 µM
inhibition in vivo at 10 mg/kg (rat): 46%

CCOc1nc(N2CCOCC2)cc(C)c1C(=O)NCc1cccc(F)c1 [Example 38, 2-Ethoxy-N-[(3-fluorophenyl)-methyl]-4-methyl-6-morpholin-4-yl-pyridine-3-carboxylic acid amide]
Emax (KCNQ2/3 channels): 144%
EC50 (KCNQ2/3 channels): 0.219 µM
inhibition in vivo at 10 mg/kg (rat): 61%

CCSc1nc(N2CCOCC2)cc(C)c1C(=O)NCc1ccc(F)cc1 [Example 4, 2-Ethylsulfanyl-N-[(4-fluorophenyl)-methyl]-4-methyl-6-morpholin-4-yl-pyridine-3-carboxylic acid amide]
Emax (KCNQ2/3 channels): 158%
EC50 (KCNQ2/3 channels): 0.124 µM
inhibition in vivo at 10 mg/kg (rat): 94%

CCSc1nc(N2CCOCC2)cc(C)c1C(=O)NCc1cccc(F)c1 [Example 2, 2-ethylsulfanyl-N-[(3-fluorophenyl)-methyl]-4-methyl-6-morpholin-4-yl-pyridine-3-carboxylic acid amide]
Emax (KCNQ2/3 channels): 171%
EC50 (KCNQ2/3 channels): 0.134 µM
ED50 (rat; ED50 at time of maximum efficacy): 4.3 mg/kg
